# Laboratory results as given in patent US7138361B2, “Herbicidal heterocycles” (E. I. du Pont de Nemours and Company, priority 2000, dated 2006).
# Assays:
# Format in all cases: in vivo
# [1] = test system: Surinam grass (Brachiaria decumbens); test: Test B postemergence
# Procedure, shortened: (§1)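 Preemergence: seeds planted and treated with test chemicals in non-phytotoxic solvent with surfactant; postemergence on plants 2–18 cm (1- to 4-leaf stage). Kept in greenhouse 13–15 days, then visually rated against controls on a 0 (no effect) to 100 (complete control) scale.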
# [2] = test system: barnyardgrass (Echinochloa crus-galli); test: Test B postemergence
# Procedure, shortened: as §1
# [3] = test system: blackgrass (Alopecurus myosuroides); test: Test B postemergence
# Procedure, shortened: as §1
# [4] = test system: cocklebur (Xanthium strumarium); test: Test B postemergence
# Procedure, shortened: as §1
# corn (Zea mays) [5] = test: Test B postemergence
# Procedure, shortened: as §1
# [6] = test system: crabgrass (Digitaria sanguinalis); test: Test B postemergence
# Procedure, shortened: as §1
# [7] = test system: giant foxtail (Setaria faberii); test: Test B postemergence
# Procedure, shortened: as §1
# [8] = test system: lambsquarters (Chenopodium album); test: Test B postemergence
# Procedure, shortened: as §1
# [9] = test system: morning glory (Ipomoea hederacea); test: Test B postemergence
# Procedure, shortened: as §1
# [10] = test system: pigweed (Amaranthus retroflexus); test: Test B postemergence
# Procedure, shortened: as §1
# [11] = test system: velvetleaf (Abutilon theophrasti); test: Test B postemergence
# Procedure, shortened: as §1
# [12] = test system: wheat (Triticum aestivum); test: Test B postemergence
# Procedure, shortened: as §1
# wild oat (Avena fatua) = test: Test B postemergence
# Procedure, shortened: as §1
# corn (Zea mays) [13] = test: Test C preemergence
# Source text: (§2) Seeds of plant species selected from bermudagrass (Cynodon dactylon), Surinam grass (Brachiaria decumbens), cocklebur (Xanthium strumarium), corn (Zea mays), crabgrass (Digitaria sanguinalis), woolly cupgrass (Eriochloa villosa), giant foxtail (Setaria faberii), goosegrass (Eleusine indica), johnsongrass (Sorghum halepense), kochia (Kochia scoparia), lambsquarters (Chenopodium album), morningglory (Ipomoea hederacea), yellow nutsedge (Cyperus esculentus), pigweed (Amaranthus retroflexus), common ragweed (Ambrosia elatior), soybean (Glycine max) and velvetleaf (Abutilon theophrasti) were planted and treated preemergence with test chemicals formulated in a non-phytotoxic solvent mixture which included a surfactant.
# (§3) At the same time, plants selected from these crop and weed species and also winter barley (Hordeum vulgare), blackgrass (Alopecurus myosuroides), canary grass (Phalaris minor), chickweed (Stellaria media), downy brome (Bromus tectorum), green foxtail (Setaria viridis), Italian ryegrass (Lolium multiflorum), wheat (Triticum aestivum), wild oat (Avena fatua) and windgrass (Apera spica-venti) were treated with postemergence applications of some of the test chemicals formulated in the same manner. Plants ranged in height from 2 to 18 cm (1- to 4-leaf stage) for postemergence treatments. Plant species in the flooded paddy test consisted of rice (Oryza saliva), smallflower flatsedge (Cyperus difformis), duck salad (Heteranthera limosa) and barnyardgrass (Echinochloa crus-galli) grown to the 2-leaf stage for testing. Treated plants and controls were maintained in a greenhouse for 12 to 14 days, after which time all species were compared to controls and visually evaluated. Plant response ratings, summarized in Table C, are based on a scale of 0 to 100 where 0 is no effect and 100 is complete control. A dash (-) response means no test result.
# [14] = test system: giant foxtail (Setaria faberii); test: Test C preemergence
# Source text: as §2, §3
# kochia (Kochia scoparia) = test: Test C preemergence
# Source text: as §2, §3
# [15] = Rate 125 g/ha, scale 0 (no effect) to 100 (complete control), 13 to 15 days
# [16] = Rate 500 g/ha, scale 0 to 100, 0 is no effect, 100 is complete control, 13 to 15 days
# [17] = Rate 62 g/ha, scale 0 to 100, 0 no effect, 100 complete control
# [18] = preemergence, Rate 31 g/ha, scale 0 to 100
# [19] = preemergence, Rate 125 g/ha, scale 0 to 100, 0 no effect, 100 complete control
# [20] = Rate 250 g/ha, scale 0 (no effect) to 100 (complete control), 13 to 15 days
compound,measurement,setting,value
COc1cc(N2CCC(n3ccc(C(C)(C)C)n3)C2=O)ccc1C (stereo not shown) [Compound 42],"Plant response rating, Surinam grass",[1]; [15],0
same,"Plant response rating, Surinam grass",[1]; [16],0
same,"Plant response rating, Barnyardgrass",[2]; [15],60
same,"Plant response rating, Barnyardgrass",[2]; [16],100
same,"Plant response rating, Blackgrass",[3]; [15],0
same,"Plant response rating, Blackgrass",[3]; [16],50
same,"Plant response rating, Cocklebur",[4]; [15],40
same,"Plant response rating, Cocklebur",[4]; [16],60
same,"Plant response rating, Corn",corn (Zea mays) [5]; [15],0
same,"Plant response rating, Corn",corn (Zea mays) [5]; [16],40
same,"Plant response rating, Crabgrass",[6]; [15],50
same,"Plant response rating, Crabgrass",[6]; [16],80
same,"Plant response rating, Foxtail, Giant",[7]; [15],50
same,"Plant response rating, Foxtail, Giant",[7]; [16],70
same,"Plant response rating, Lambsquarters",[8]; [15],70
same,"Plant response rating, Lambsquarters",[8]; [16],100
same,"Plant response rating, Morningglory",[9]; [15],60
same,"Plant response rating, Morningglory",[9]; [16],100
same,"Plant response rating, Pigweed",[10]; [15],80
same,"Plant response rating, Pigweed",[10]; [16],100
same,"Plant response rating, Velvetleaf",[11]; [15],50
same,"Plant response rating, Velvetleaf",[11]; [16],80
same,"Plant response rating, Wheat",[12]; [15],0
same,"Plant response rating, Wheat",[12]; [16],0
same,"Plant response rating, Wild Oat",wild oat (Avena fatua); [15],0
same,"Plant response rating, Wild Oat",wild oat (Avena fatua); [16],40
same,"Plant response rating, Corn",corn (Zea mays) [13]; [17],20
same,"Plant response rating, Corn",corn (Zea mays) [13]; [18],0
same,"Plant response rating, Corn",corn (Zea mays) [13]; [19],40
same,"Plant response rating, Foxtail, Giant",[14]; [17],50
same,"Plant response rating, Foxtail, Giant",[14]; [18],30
same,"Plant response rating, Foxtail, Giant",[14]; [19],100
same,"Plant response rating, Kochia",kochia (Kochia scoparia); [17],50
same,"Plant response rating, Kochia",kochia (Kochia scoparia); [18],20
same,"Plant response rating, Kochia",kochia (Kochia scoparia); [19],100
CC(C)(C)c1ccn(C2OCN(c3cccc(C(F)(F)F)c3)C2=O)n1 (stereo not shown) [compound 9],"Plant response rating, Surinam grass",[1]; [17],0
same,"Plant response rating, Surinam grass",[1]; [20],0
same,"Plant response rating, Barnyardgrass",[2]; [17],0
same,"Plant response rating, Barnyardgrass",[2]; [20],60
same,"Plant response rating, Blackgrass",[3]; [17],0
same,"Plant response rating, Blackgrass",[3]; [20],0
same,"Plant response rating, Cocklebur",[4]; [17],10
same,"Plant response rating, Cocklebur",[4]; [20],20
same,"Plant response rating, Corn",corn (Zea mays) [5]; [17],0
same,"Plant response rating, Corn",corn (Zea mays) [5]; [20],0
same,"Plant response rating, Crabgrass",[6]; [17],0
same,"Plant response rating, Crabgrass",[6]; [20],0
same,"Plant response rating, Foxtail, Giant",[7]; [17],0
same,"Plant response rating, Foxtail, Giant",[7]; [20],0
same,"Plant response rating, Lambsquarters",[8]; [17],70
same,"Plant response rating, Lambsquarters",[8]; [20],80
same,"Plant response rating, Morningglory",[9]; [17],0
same,"Plant response rating, Morningglory",[9]; [20],10
same,"Plant response rating, Pigweed",[10]; [17],70
same,"Plant response rating, Pigweed",[10]; [20],80
same,"Plant response rating, Velvetleaf",[11]; [17],0
same,"Plant response rating, Velvetleaf",[11]; [20],0
same,"Plant response rating, Wheat",[12]; [17],0
same,"Plant response rating, Wheat",[12]; [20],0
same,"Plant response rating, Wild Oat",wild oat (Avena fatua); [17],0
same,"Plant response rating, Wild Oat",wild oat (Avena fatua); [20],0
CC1(C)CCc2cn(C3CCN(c4cccc(C(F)(F)F)c4)C3=O)nc21 (stereo not shown) [Compound 10],"Plant response rating, Surinam grass",[1]; [15],0
same,"Plant response rating, Surinam grass",[1]; [20],0
same,"Plant response rating, Surinam grass",[1]; [16],0
same,"Plant response rating, Barnyardgrass",[2]; [15],0
same,"Plant response rating, Barnyardgrass",[2]; [20],0
same,"Plant response rating, Barnyardgrass",[2]; [16],0
same,"Plant response rating, Blackgrass",[3]; [15],0
same,"Plant response rating, Blackgrass",[3]; [20],0
same,"Plant response rating, Blackgrass",[3]; [16],0
same,"Plant response rating, Cocklebur",[4]; [15],0
same,"Plant response rating, Cocklebur",[4]; [20],0
same,"Plant response rating, Cocklebur",[4]; [16],0
same,"Plant response rating, Corn",corn (Zea mays) [5]; [15],0
same,"Plant response rating, Corn",corn (Zea mays) [5]; [20],0
same,"Plant response rating, Corn",corn (Zea mays) [5]; [16],0
same,"Plant response rating, Crabgrass",[6]; [15],0
same,"Plant response rating, Crabgrass",[6]; [20],0
same,"Plant response rating, Crabgrass",[6]; [16],0
same,"Plant response rating, Foxtail, Giant",[7]; [15],0
same,"Plant response rating, Foxtail, Giant",[7]; [20],0
same,"Plant response rating, Foxtail, Giant",[7]; [16],0
same,"Plant response rating, Lambsquarters",[8]; [15],0
same,"Plant response rating, Lambsquarters",[8]; [20],100
same,"Plant response rating, Lambsquarters",[8]; [16],0
same,"Plant response rating, Morningglory",[9]; [15],0
same,"Plant response rating, Morningglory",[9]; [20],0
same,"Plant response rating, Morningglory",[9]; [16],0
same,"Plant response rating, Pigweed",[10]; [15],0
same,"Plant response rating, Pigweed",[10]; [20],0
same,"Plant response rating, Pigweed",[10]; [16],0
same,"Plant response rating, Velvetleaf",[11]; [15],0
same,"Plant response rating, Velvetleaf",[11]; [20],0
same,"Plant response rating, Velvetleaf",[11]; [16],0
same,"Plant response rating, Wheat",[12]; [15],0
same,"Plant response rating, Wheat",[12]; [20],0
same,"Plant response rating, Wheat",[12]; [16],0
same,"Plant response rating, Wild Oat",wild oat (Avena fatua); [15],0
same,"Plant response rating, Wild Oat",wild oat (Avena fatua); [20],0
same,"Plant response rating, Wild Oat",wild oat (Avena fatua); [16],0
